Here are results for 28 molecules from PubChem BioAssay (NCI).

The structures appear in SMILES notation. Where “and” joins values, the source holds several entries; their conditions need not be identical. Equal entries are not always repeated.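 Exposure lasted 48 hours, with cells grown in 96-well plates and compounds tested at five concentrations. GI50 is the concentration that inhibits growth by half. TGI: concentration producing complete growth inhibition.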 A value given as a limit tells only on which side of the number the result lay.

What all share (experiment): NCI-60 cell line screen, 48 h
Assay [1] relates to HT29 colon.
For assay [2], the system named is RPMI-8226 leukemia.
For assay [3], the system named is KM12 colon.
The test system of assay [4] is UACC-62 melanoma.
In assay [5] the test system is NCI-H460 lung.
Assay [6] has as its system COLO 205 colon.
Assay [7] has as its system MDA-MB-231 breast.
Assay [8] has as its system A549 NSCLC.
The test system of assay [9] is OVCAR-5 ovarian.
The subject of assay [10] is NCI-H23 lung.
Assay [11] relates to A498 renal.

As for `COc1ccc2c(c1)c1c(n2CCN(C)C)-c2ccccc2CC1`, the TGI was determined as 20.3 µM in [1]; 45 µM in [2]; 28 µM in [3]; 28 µM in assay [4]; 30.8 µM in assay [5]; 27.2 µM in assay [6]. Also, the TGI amounted to 27.2 µM in assay [7], 29.5 µM in assay [8], 32.2 µM in assay [9] and 31.9 µM in assay [10].
Consider `O=[N+]([O-])c1cccc2nc3ccccc3c(NCCCNc3c4ccccc4nc4cccc([N+](=O)[O-])c34)c12`, for which the TGI in [1] is less than 0.01 µM; in assay [3], 0.073 µM; in [4] it was 0.245 µM; in assay [6] it was less than 0.01 µM; in [7], 0.0311 µM; in [8], 0.166 µM. The molecule further came in with a TGI in assay [10] of 0.248 µM.
Take `CCCCc1ccc(-n2sc3ncc(C)cc3c2=O)cc1`: the TGI is 99 µM in assay [2]; more than 100 µM in [3]; more than 100 µM in [4]; more than 100 µM in [5]; 46.3 µM in assay [6]; 44.5 µM in assay [7]. Also, the TGI in assay [8] was 78.9 µM; in [9], 57.6 µM; in assay [10], more than 100 µM.
For `O=CNCNCCO`, the TGI in assay [1], in [2], in [4], in [5], in assay [11] and in [8] was more than 100 µM in each case. Besides, the TGI in assay [9] and in assay [10] was more than 100 µM in each case.
As for `CCN(CC)c1ccc2c(c1)Oc1ccc(N(CC)CC)cc1C21Oc2ccccc2-c2c1c1ccccc1n2CC` (stereo not given), the TGI in assay [1], in assay [2], in assay [4], in [6], in assay [11] and in assay [8] was more than 100 µM throughout. This molecule yielded a TGI in assay [10] of 8.01 µM.
In the case of `CCOC(=O)C1(F)S(=O)(=O)OCCOS1(=O)=O`, the TGI in assay [1], in assay [2], in [3], in assay [4], in assay [6] and in assay [8] was more than 100 µM each time. The TGI in assay [9] and in [10] was more than 100 µM in each case.
`O=C(CCC1C(=O)NC(=S)NC1=O)c1ccc2ccccc2c1`: the TGI in [1], in assay [3], in [4], in [5], in [6] and in [11] was more than 100 µM each time. For the same molecule, the TGI in assay [8], in assay [9] and in assay [10] was more than 100 µM each time.
For `N#Cc1nc(-c2ccco2)oc1N`, the TGI in assay [1], in [2], in assay [3], in assay [4], in assay [5] and in [6] was more than 10 µM in each case. Also, the TGI in assay [7], in [8], in assay [9] and in assay [10] was more than 10 µM throughout.
`CC1(C)CNCC(C)(OCc2ccccc2)C(=O)NC(C)(C)CNCC(C)(OCc2ccccc2)C(=O)N1` (stereo not given): the TGI in assay [3], in assay [4], in assay [5], in [11], in assay [7] and in assay [8] was more than 10 µM throughout. Besides, the TGI in assay [9] and in assay [10] was more than 10 µM throughout.
With `O=[N+]([O-])c1ccc(OC2CC3C4C=CC3C2C4)c([N+](=O)[O-])c1` (stereo not given), the GI50 was > 100 µM and 30 µM in assay [1]; more than 100 µM in [3]; 84.4 µM and > 31.6 µM in assay [4]; more than 100 µM in [5]; 96.5 µM and > 31.6 µM in [11]; 11.3 µM and > 31.6 µM in assay [7]. Further, the GI50 in [9] is more than 100 µM; in assay [10] it was > 100 µM and 26.8 µM. Further, the TGI in assay [1], in assay [3], in assay [4], in assay [5], in assay [6] and in [11] was more than 100 µM in each case. The TGI was 74 µM and > 31.6 µM in assay [7]; more than 100 µM in [8]; more than 100 µM in [9]; more than 100 µM in assay [10].
As to `Oc1[nH]c2ccccc2c1N=NC(=S)Nc1ccccc1Cl`, the TGI was 21.9 µM in [1]; 14.9 µM in assay [3]; 20.6 µM in assay [4]; 52.2 µM in assay [5]; more than 100 µM in assay [6]; 35.4 µM in assay [11]. Moreover, the TGI in assay [7] is 32 µM; in assay [8], 23.8 µM; in [9], more than 100 µM; in assay [10] it was 33.5 µM.
As to `Nc1c([N+](=O)[O-])nc(Cl)c2nncn12`, the TGI in [1] is more than 100 µM; in assay [2], more than 69.7 µM; in assay [3], more than 100 µM; in [4], more than 100 µM; in assay [5], more than 100 µM; in [6], more than 65 µM. Also, the TGI in assay [11], in assay [8], in assay [9] and in assay [10] was more than 100 µM each time.
With `N#Cc1c2c(c(N)oc1=O)C(c1ccccc1)CC(=O)N2` (stereo not given), the TGI in assay [1], in [2], in assay [3], in assay [4], in assay [5] and in assay [6] was more than 100 µM each time. For the same molecule, the TGI in [7], in [8], in assay [9] and in assay [10] was more than 100 µM throughout.
Turning to `COc1ccc(/C(Br)=C2\OC(=O)c3ccccc32)cc1`, the TGI in [1], in assay [2], in assay [3], in [4], in assay [5] and in assay [6] was more than 10 µM throughout. For the same molecule, the TGI in [7], in [8], in assay [9] and in [10] was more than 10 µM throughout.
Turning to `NNC(=O)c1c(-c2cccnc2)cnc2ccccc12`, the TGI in assay [1], in assay [2], in assay [3], in [4], in assay [5] and in assay [6] was more than 100 µM in each case. For the same molecule, the TGI in assay [8], in [9] and in assay [10] was more than 100 µM each time.
In the case of `C/C(=C\CBr)CCC(Br)C(C)(C)Cl` (stereo not given), the TGI in [1], in assay [2], in assay [3], in assay [4], in [5] and in assay [6] was more than 100 µM in each case. Further, the TGI in assay [8], in [9] and in [10] was more than 100 µM in each case.
On to `CCOC(=O)C(C(=O)OCC)=C1NC2(c3ccccc3Nc3ccccc32)C(C#N)S1` (stereo not given), for which the TGI in [1] was determined as 17.8 µM; in assay [2] it was 7.07 µM; in [3], 19.2 µM; in assay [4], 22 µM; in [5] it was 15.2 µM; in assay [6] it was 19.4 µM. Moreover, the TGI in assay [11] is 29.2 µM; in [8], 20.9 µM; in assay [9], 36.1 µM; in assay [10], 16 µM.
Turning to `N[C@H](C(=O)O)[C@@H]1CC(Br)=NO1`, the TGI in [1], in assay [3], in [4], in assay [5], in assay [6] and in [11] was more than 100 µM each time. In addition, the TGI in assay [7], in assay [8], in assay [9] and in assay [10] was more than 100 µM each time.
Consider `CCOP1(=O)C=C(C)C(Cl)=C(C)C1` (stereo not given), for which the TGI in [1] was 79.6 µM; in assay [2], 62.6 µM; in assay [3], 34.5 µM; in assay [4] it was 33.9 µM; in [5], more than 100 µM; in assay [6], 24.4 µM. Moreover, the TGI in assay [8] is 65 µM; in assay [9], more than 100 µM; in assay [10] it was 46.2 µM.
Consider `C/C=C/C#CC#C/C=C/C=C/C(O)CCO` (stereo not given), for which the TGI in assay [1], in assay [2], in assay [3], in [4], in [5] and in assay [6] was more than 23.1 µM in each case. The TGI in assay [8], in [9] and in [10] was more than 23.1 µM each time.
Turning to `O=C(c1ccccc1)N(C(=O)c1ccccc1)c1nc(SCc2ccccc2)ns1`, the TGI in assay [1] is 84.8 µM; in [2], 56.6 µM; in assay [3], more than 100 µM; in [4], 42.9 µM; in assay [5], 56.2 µM; in assay [6] it was 40.3 µM. In addition, the TGI in assay [11] is 73.9 µM; in [8], more than 100 µM; in assay [9], 86.8 µM; in assay [10], 57.3 µM.
Consider `O=c1[nH]c(=S)nc2nc3c4ccc[nH]c4c4ccccc4c3nc12`, for which the TGI in assay [1], in assay [2], in assay [3], in [4], in assay [5] and in assay [6] was more than 100 µM throughout. Besides, the TGI in [11], in assay [8], in assay [9] and in assay [10] was more than 100 µM each time.
As to `CC1(c2nc3ccccc3[nH]2)CCC(C(=O)O)C(C)(C)O1` (stereo not given), the TGI in [1], in assay [2], in assay [3], in assay [4], in [6] and in assay [7] was more than 100 µM throughout. The TGI in assay [8], in assay [9] and in assay [10] was more than 100 µM throughout.
On to `CN(C)C(=NCc1ccccc1)NC#N`, for which the TGI in [1], in assay [3], in assay [4], in [5], in assay [6] and in assay [8] was more than 100 µM in each case. The TGI in [10] was more than 100 µM.
Take `CCOC(=O)CNC(=O)C(CSC(=O)N(O)c1ccc(Cl)cc1)NC(=O)CCC(N)C(=O)OCC` (stereo not given): the TGI was more than 50 µM in [1]; 46 µM in [2]; more than 50 µM in assay [3]; more than 50 µM in assay [4]; more than 50 µM in assay [5]; more than 50 µM in [6]. Also, the TGI in [7], in assay [8], in assay [9] and in assay [10] was more than 50 µM in each case.
As for `Cc1ccc(-c2nc(N/N=C/C=C/c3ccccc3)c3ccccc3n2)cc1`, the TGI in [1] is more than 100 µM; in [2] it was more than 100 µM; in assay [3] it was more than 100 µM; in assay [4], 48.1 µM; in assay [5], more than 100 µM; in [6] it was more than 100 µM. Also, the TGI in assay [7] was 47.9 µM; in assay [8] it was more than 100 µM; in [9] it was 48.1 µM; in [10] it was more than 100 µM.
For `Cc1ccc2nc(N/N=C/c3sccc3C)cc(C)c2c1`, the TGI was more than 100 µM in assay [1]; more than 100 µM in [3]; more than 100 µM in [4]; more than 100 µM in [6]; more than 100 µM in [11]; 62.2 µM in assay [7]. For the same molecule, the TGI in assay [8], in [9] and in assay [10] was more than 100 µM throughout.
On to `O=c1c2cc(S(=O)(=O)O)ccc2nc(COc2ccc(Oc3ccc(Cl)cc3Cl)cc2)n1-c1ccc(Oc2ccc(Cl)cc2)cc1Cl`, for which the TGI is 36 µM in [1]; 65.4 µM in [2]; more than 100 µM in assay [3]; 34.7 µM in [4]; 32.8 µM in assay [5]; 34 µM in assay [6]. The TGI in [11] is 57 µM; in [8], 40.6 µM; in assay [9], 55.1 µM; in assay [10], 43 µM.
